Results: publication PMC11564096, “Structural and mechanistic insights into Streptococcus pneumoniae NADPH oxidase” (Nature Structural & Molecular Biology, 2024)

Legend:
[1] = molecular target: T1, SpNOX (Streptococcus pneumoniae NOX) (Streptococcus pneumoniae, UniProt Q8CZ28); type: binding; conditions: substrate-free, 1 mM FAD added; DH domain FAD site
T1 construct: gene spr0531; residues 2-400, N-terminal 6xHis-PreScission tag cleaved, E. coli C41(DE3), LMNG micelles, monomer, 46 kDa, two b-type hemes and FAD
T1 sequence (Q8CZ28 2-400): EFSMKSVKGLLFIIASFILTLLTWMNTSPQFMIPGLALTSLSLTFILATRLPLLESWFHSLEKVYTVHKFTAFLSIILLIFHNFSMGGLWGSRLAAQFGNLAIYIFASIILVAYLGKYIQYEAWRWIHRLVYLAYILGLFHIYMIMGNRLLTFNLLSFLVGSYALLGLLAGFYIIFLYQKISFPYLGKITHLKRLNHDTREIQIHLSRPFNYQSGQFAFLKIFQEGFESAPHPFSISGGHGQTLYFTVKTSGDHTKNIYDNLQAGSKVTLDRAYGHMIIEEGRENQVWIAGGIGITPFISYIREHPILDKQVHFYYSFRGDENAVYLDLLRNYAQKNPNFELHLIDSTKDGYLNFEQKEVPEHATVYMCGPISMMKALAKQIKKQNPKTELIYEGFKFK

[2] = molecular target: T1, SpNOX (Streptococcus pneumoniae NOX); assay: cytochrome c reduction assay, absorbance at […] nm; type: biochemical; conditions: 100 µM bovine cytochrome c, 0.1 µM SpNOX, 1 µM FAD, 50 mM Tris pH 7.0, 250 mM NaCl, room temperature, aerobic; read-out: apparent KM

Row | SMILES | cryo-EM structure, 2.29 Å [1] | Km [2]
1 | Cc1cc2nc3c(=O)[nH]c(=O)nc-3n(C[C@H](O)[C@H](O)[C@H](O)COP(=O)(O)OP(=O)(O)OC[C@H]3O[C@@H](n4cnc5c(N)ncnc54)[C@H](O)[C@@H]3O)c2cc1C [FAD] | A clear density for FAD was well resolved in all maps | 
2 | NC(=O)C1=CN([C@@H]2O[C@H](COP(=O)(O)OP(=O)(O)OC[C@H]3O[C@@H](n4cnc5c(N)ncnc54)[C@H](OP(=O)(O)O)[C@@H]3O)[C@@H](O)[C@H]2O)C=CC1 [NADPH] |  | 7.59 µM
